Assay results: EP4790066A1, “GLP-1R/GIPR/GCGR TRIPLE AGONIST ANALOGUE AND USE THEREOF” (Shenzhen Bay Laboratory, priority 2023, dated 2025)
*1 amine or outer side, *2 acyl side, *3 side chain or, on linkers, in order; H or OH if unused. Where a SMILES comes first, the peptide text is derived from it. Bridges are numbered along the chain shown (N, C = ends). [ ]: non-standard residue; d: D form. X1 = O=C(O)CCCCCCCCCCCCCCCCCCC(=O)N[C@@H](CCCCNC(=O)COCCOCCNC(=O)COCCOCCNC(=O)CCC(=O)N(CCNC(=O)C[*:1])CCNC(=O)C[*:2])C(=O)O; Phe(2-F) = N[C@@H](Cc1ccccc1F)C(=O)O; Iva = CC[C@](C)(N)C(=O)O; Aib = CC(C)(N)C(=O)O

Tests used:
GLP-1R [1] = molecular target: T1, GLP-1R (Homo sapiens, UniProt P43220); experiment: cAMP method (HTRF cAMP detection kit), HEK293/pGM-CREB-L-Luc/GLP-1 pool; type: cell-based; settings: read-out: EC50 (pM) for each receptor GLP-1R
T1 construct: expressed in transfected cells

in vivo = experiment: in vivo; design: species or system male SD rats; settings: rat
Protocol: The pharmacokinetic behavior of target peptide derivatives (or polypeptide derivatives) prepared in Example 1 and Example 2, i.e., TG1-TG94 in rodents was tested. The specific steps are as follows:
The target peptide derivatives (TG1-TG94) to be tested were administered to male SD rats via subcutaneous injection (SC, 3 mg/kg; drug vehicle: PBS, concentration: 1.5 mg/mL; administration volume: 2 mL) and intravenous injection (IV, 1 mg/kg; drug vehicle: PBS, concentration: 0.5 mg/mL; administration volume: 2 mL) as a single dose, respectively. Whole blood samples were collected from the jugular vein or other appropriate vein at the following time points after administration: for SC, 15 min, 30 min, 1 h, 2 h, 4 h, 6 h, 8 h, 24 h, 48 h, 72 h, 96 h, 120 h, and 168 h; for IV, 5 min, 15 min, 30 min, 1 h, 2 h, 4 h, 8 h, 24 h, 48 h, 72 h, 96 h, 120 h, and 168 h. 0.2 mL of blood was collected and transferred into a labeled EDTA-K2 anticoagulant tube. The tube was gently inverted to ensure thorough mixing of the anticoagulant (EDTA-K2) with the blood and immediately placed on wet ice. Plasma separation was performed as soon as possible by centrifugation under the following conditions: 4°C, 6800xg, for 6 min. The plasma samples were stored in a refrigerator at no higher than -20°C and used for analysis when needed.
Under the condition of yellow light in an ice-water bath, except for blank samples, 300 µL of precipitant containing an internal standard was added to a 96-well plate containing 20 µL of standard curve sample, quality control sample, or unknown sample; 300 µL of acetonitrile was added to the blank sample. The mixture was vortexed, mixed well, and then centrifuged. 150 µL of the supernatant after centrifugation was transferred to a new 96-well plate, and 150 µL of ultrapure water was added and mixed well. The above samples were subjected to quantitative analysis using LC-MS analysis with XB-C18 (2.1 * 100 mm, 3 µm) chromatography for gradient elution. The mobile phases used were: mobile phase A = 0.1% formic acid-water; mobile phase B = acetonitrile. Phoenix WinNonlin software was used to calculate the pharmacokinetic parameters. […] Table 5A: Pharmacokinetic parameters of target peptide derivatives

GCGR = molecular target: T2, GCGR (Homo sapiens, UniProt P47871); experiment: CreLuc method (CRE-luciferase reporter), 293HEK/pGM-CREB-L-Luc/GCGR pool; type: cell-based; settings: 6 h incubation, read-out: EC50 (pM) for each receptor GCGR
T2 construct: expressed in transfected cells
Method in brief: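 Stable HEK293 pools co-expressing each receptor with a CRE-luciferase reporter were plated at 20,000 cells/well in freestyle medium and treated with compound dilution series for 6 h at 37 °C. Luminescence was read with ONE-GLO to derive EC50.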

GLP-1R [2] = molecular target: T1, GLP-1R; experiment: cell-based; type: cell-based; settings: for EC50: GLP-1R CreLuc
Protocol: The steps are as follows:
The stably transfected cell line HEK293/pGM-CREB-L-Luc/GLP-1R pool was constructed. […] The corresponding test cells were selected, digested (for 1 min), dispersed by pipetting, and centrifuged (1000 rpm, 5 min). The culture medium was discarded, and the cells were suspended using Freestyle culture medium, centrifuged and counted. The cells were diluted to a cell density of 5 x 10^5 cells/mL using freestyle culture medium (0% FBS) and culture medium containing 10% FBS, respectively. The cells were then added to the detection wells of a 384-well plate (40 µL/20,000 cells/well). Echo was used to add the corresponding analyte dilution series. The cell plate was incubated at 37°C and 5% CO2 for 6 h, and then ONE-GLO (20 µL/well) was added for detection. It was kept in the dark for 3 min, and then a chemiluminescent microplate reader was used for determination. The plate was read within 30 min, and the determination results were recorded. […]

T1 sequence (P43220 24-463, species assumed): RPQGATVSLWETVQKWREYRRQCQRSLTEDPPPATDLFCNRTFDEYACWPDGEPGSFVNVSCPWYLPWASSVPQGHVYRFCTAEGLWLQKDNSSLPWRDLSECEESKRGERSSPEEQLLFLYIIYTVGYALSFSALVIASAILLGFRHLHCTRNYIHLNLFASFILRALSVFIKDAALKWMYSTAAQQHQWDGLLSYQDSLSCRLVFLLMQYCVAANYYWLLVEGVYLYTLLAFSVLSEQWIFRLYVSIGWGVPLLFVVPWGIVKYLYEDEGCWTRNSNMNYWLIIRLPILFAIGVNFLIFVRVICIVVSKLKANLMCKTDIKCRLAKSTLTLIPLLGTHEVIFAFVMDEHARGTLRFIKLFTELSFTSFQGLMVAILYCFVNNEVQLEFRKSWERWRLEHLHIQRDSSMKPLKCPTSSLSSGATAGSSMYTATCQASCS
T2 sequence (P47871 26-477, species assumed): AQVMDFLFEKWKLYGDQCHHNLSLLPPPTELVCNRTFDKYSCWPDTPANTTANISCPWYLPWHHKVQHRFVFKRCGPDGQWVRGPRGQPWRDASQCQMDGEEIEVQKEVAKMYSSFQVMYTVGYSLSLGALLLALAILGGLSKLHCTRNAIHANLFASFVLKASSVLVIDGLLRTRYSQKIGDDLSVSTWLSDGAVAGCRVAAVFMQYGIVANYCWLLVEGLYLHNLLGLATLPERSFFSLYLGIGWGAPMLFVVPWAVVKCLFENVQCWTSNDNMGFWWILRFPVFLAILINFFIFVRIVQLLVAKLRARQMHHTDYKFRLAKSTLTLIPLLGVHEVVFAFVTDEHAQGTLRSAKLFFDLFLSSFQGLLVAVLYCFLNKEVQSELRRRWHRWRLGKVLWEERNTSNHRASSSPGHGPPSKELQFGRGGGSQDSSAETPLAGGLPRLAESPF

## CC[C@H](C)[C@@H]1NC(=O)[C@H](Cc2ccccc2)NC(=O)[C@@H](NC(=O)C(C)(C)NC(=O)[C@H](CCC(N)=O)NC(=O)[C@H](C)NC(=O)[C@H](CCCCNC(C)=O)NC(=O)[C@H](CCCCN)NC(=O)[C@H](CC(=O)O)NC(=O)[C@H](CC(C)C)NC(=O)[C@](C)(CC)NC(=O)[C@@H](NC(=O)[C@H](CO)NC(=O)[C@H](Cc2ccc(O)cc2)NC(=O)[C@H](CC(=O)O)NC(=O)[C@H](CO)NC(=O)[C@@H](NC(=O)[C@H](Cc2ccccc2F)NC(=O)[C@@H](NC(=O)CNC(=O)[C@H](CCC(N)=O)NC(=O)C(C)(C)NC(=O)[C@@H](N)Cc2ccc(O)cc2)[C@@H](C)O)[C@@H](C)O)[C@@H](C)CC)CSCC(=O)NCCN(C(=O)CCC(=O)NCCOCCOCC(=O)NCCOCCOCC(=O)NCCCC[C@H](NC(=O)CCCCCCCCCCCCCCCCCCC(=O)O)C(=O)O)CCNC(=O)CSC[C@@H](C(=O)NCC(=O)NCC(=O)N2CCC[C@H]2C(=O)N[C@@H](CO)C(=O)N[C@@H](CO)C(=O)NCC(=O)N[C@@H](C)C(=O)N2CCC[C@H]2C(=O)N2CCC[C@H]2C(=O)N2CCC[C@H]2C(=O)N[C@@H](CO)C(N)=O)NC(=O)[C@H](CC(C)C)NC(=O)[C@H](CC(C)C)NC(=O)[C@H](Cc2ccc(O)cc2)NC(=O)[C@H](CCC(=O)O)NC1=O [TG52] (H-Y[Aib]QGT[Phe(2-F)]TSDYSI[Iva]LDKK(Ac)AQ[Aib]CFIEYLLCGGPSSGAPPPS-NH2; linker 21-28 via X1)
GLP-1R [1]
  EC50: 4.1 pM
In vivo; male, SD, iv, 1 mg/kg
  AUC(0-inf): 289 µg·h/mL
  AUC(0-t): 265 µg·h/mL
  MRT: 26.5 h
  Vd: 0.092 L/kg
  clearance: 3.48 mL/h/kg
  half-life: 21.5 h
In vivo; male, SD, sc
  bioavailability: 50.9%
In vivo; male, SD, sc, 3 mg/kg
  AUC(0-inf): 570 µg·h/mL
  AUC(0-t): 410 µg·h/mL
  CL/F: 5.26 mL/h/kg
  Cmax: 8210 ng/mL
  MRT: 42.8 h
  Tmax: 24 h
  half-life: 26.4 h
In vivo; iv, 1 mg/kg
  AUC0-t /AUC0-inf: 0.918
  Kel: 0.0323 h⁻¹
In vivo; sc, 3 mg/kg
  AUC0-t /AUC0-inf: 0.834
  Vz/F: 0.200 L/kg
GCGR
  EC50: 173 pM
GLP-1R [2]
  serum albumin binding capacity: a stronger serum albumin binding capacity
GLP-1R [2]; EC50 (pM) 10% FBS, 10% FBS
  EC50: 861 pM
GLP-1R [2]; 0% FBS, read-out: EC50 (pM) 0% FBS
  EC50: 13.1 pM
